Values of other authors in PubChem BioAssay AID1259409 (Chemical Carcinogenesis Research Information System (CCRIS), 2018).
*1 amine or outer side, *2 acyl side, *3 side chain or, on linkers, in order; H or OH if unused. Where a SMILES comes first, the peptide text is derived from it. CO = O=C([*:1])[*:2]

Test system: rodent chemically induced tumor inhibition, incidence and multiplicity
Experiment: CCRIS tumor inhibitor studies
Conditions: Species: MOUSE

Row | Compound | tumour outcome (control, treated, inhibition, significance) (Carcinogen: 1,2,3,4,5,6-HEXACHLOROCYCLOHEXANE, 319-84-6, Dose [Inhibitor]: 0.1% IN DIET FOR 12 WK POST CARCINOGEN TREATMENT (STUDY DURATION: 48 WK), Route [Inhibitor]: ORAL, Strain/Sex: DDY/MALE, Target Tissue: Type of Lesion: LIVER: NODULAR HYPERPLASIA, Dose [Carcinogen]: 500 PPM IN DIET FOR 24 WK, Promoter: NONE USED) | tumour outcome (control, treated, inhibition, significance) (Carcinogen: N-BUTYL-N-(4-HYDROXY-BUTYL)NITROSAMINE, 3817-11-6, Dose [Inhibitor]: 0.1% IN DIET FOR 32 WK POST CARCINOGEN TREATMENT (STUDY DURATION: 40 WK), Route [Inhibitor]: ORAL, Strain/Sex: ICR/MALE, Target Tissue: Type of Lesion: URINARY BLADDER: CANCER, Dose [Carcinogen]: 0.05% IN DRINKING WATER FOR FIRST 8 WK THEN FED BASAL DIET CONTAINING INHIBITOR, Promoter: NONE USED) | tumour outcome (control, treated, inhibition, significance) (Carcinogen: N-BUTYL-N-(4-HYDROXY-BUTYL)NITROSAMINE, 3817-11-6, Dose [Inhibitor]: 0.1% IN DIET FOR 32 WK POST CARCINOGEN TREATMENT (STUDY DURATION: 40 WK), Route [Inhibitor]: ORAL, Strain/Sex: ICR/MALE, Target Tissue: Type of Lesion: URINARY BLADDER: PAPILLARY OR NODULAR HYPERPLASIA, Dose [Carcinogen]: 0.05% IN DRINKING WATER FOR FIRST 8 WK THEN FED BASAL DIET CONTAINING INHIBITOR, Promoter: NONE USED) | tumour outcome (control, treated, inhibition, significance) (Carcinogen: URETHANE, 51-79-6, Dose [Inhibitor]: 11 INJECTIONS (100 UG/G BW FOR EACH) AT 12 HR INTERVALS FROM 0-120 HR AFTER URETHANE TREATMENT (STUDY DURATION: 5 MO), Route [Inhibitor]: INTRAPERITONEAL, Strain/Sex: ICR/JCI/FEMALE, Target Tissue: Type of Lesion: LUNG: TUMOR, Dose [Carcinogen]: 1.0 MG/G BW ONCE, Promoter: NONE USED) | tumour outcome (control, treated, inhibition, significance) (Carcinogen: URETHANE, 51-79-6, Dose [Inhibitor]: 11 INJECTIONS (100 UG/G BW FOR EACH) AT 12 HR INTERVALS FROM 240-360 HR AFTER URETHANE TREATMENT (STUDY DURATION: 5 MO), Route [Inhibitor]: INTRAPERITONEAL, Strain/Sex: ICR/JCI/FEMALE, Target Tissue: Type of Lesion: LUNG: TUMOR, Dose [Carcinogen]: 1.0 MG/G BW ONCE, Promoter: NONE USED) | tumour outcome (control, treated, inhibition, significance) (Carcinogen: 7,12-DIMETHYLBENZ[A]ANTHRACENE, 57-97-6, Dose [Inhibitor]: 0, 16 NMOL IN 0.1 ML ACETONE 2/WK FOR 20 WK APPLIED 40 MIN PRIOR TO EACH PROMOTER DOSE (STUDY DURATION: 21 WK), Route [Inhibitor]: DERMAL, Strain/Sex: ICR/FEMALE, Target Tissue: Type of Lesion: SKIN: TUMOR, Dose [Carcinogen]: 0.19 UMOL IN 0.1 ML ACETONE ONCE, Promoter: 12-O-TETRADECANOYLPHORBOL-13-ACETATE, 16561-29-8) | tumour outcome (control, treated, inhibition, significance) (Carcinogen: 7,12-DIMETHYLBENZ[A]ANTHRACENE, 57-97-6, Dose [Inhibitor]: 0, 160 NMOL IN 0.1 ML ACETONE 2/WK FOR 20 WK APPLIED 40 MIN PRIOR TO EACH PROMOTER DOSE (STUDY DURATION: 21 WK), Route [Inhibitor]: DERMAL, Strain/Sex: ICR/FEMALE, Target Tissue: Type of Lesion: SKIN: TUMOR, Dose [Carcinogen]: 0.19 UMOL IN 0.1 ML ACETONE ONCE, Promoter: 12-O-TETRADECANOYLPHORBOL-13-ACETATE, 16561-29-8)
1 | CC(C)[C@H](NC(=O)[C@H](CCCN=C(N)N)NC(=O)N[C@@H](Cc1ccccc1)C(=O)O)C(=O)N[C@H](C=O)CCCN=C(N)N ({Phe-CO}-Arg-Val-Arg-aldehyde) | 1/13 (7%), 2/15 (13%), -86%, not significant | 1/13 (8%), 3/15 (20%), -150%, not significant | 4/13 (31%), 8/15 (53%), -71%, not significant | 49/53 (92%), 38/46 (83%), 10%, not significant | 49/53 (92%), 34/45 (76%), 17%, p<0.05 |  | 
2 | CC/C=C\C/C=C\C/C=C\CCCCCCCC(=O)O |  |  |  |  |  | 87%, 80%, 8%, not significant | 87%, 47%, 46%, p<0.005
